Laboratory results as given in patent publication US12239413B2, “2D material detector for activity monitoring of single living micro-organisms and nano-organisms” (SOUNDCELL HOLDING B.V., priority 2019, dated 2025).

Key:
E. coli bacteria [1] = assay: Motion of suspended single layer CVD graphene with E. coli droplet, antibiotic susceptibility; assay type: cell-based; details: single layer chemical vapour deposited graphene, Lysogeny broth droplet
Procedure: In the embodiment of FIG. 2 a red helium-neon laser 114 is directed through optical components 115 on the 2D material layer 102 which is placed in a controlled humidity chamber 116. The intensity of the reflected light from the chip 109 is altered by the motion of the micro-organism 105 in the liquid droplet 111 that in turn moves the suspended 2D material 102. This intensity is then measured by a photodiode 117 connected to an oscilloscope 118. In one example a liquid droplet 111 containing micro-organism E. coli bacteria 105 and nutrition Lysogeny broth solution 112 has been dispensed on the sample receiver 101 comprising an array of single layer chemical vapour deposited graphene as the inert suspended layer 102. The motion is read out using the measurement system described in FIG. 2. The motion of the suspended layer is traced in a timeframe of a few seconds in the presence and absence of chemicals 113 and micro-organisms 105.

E. coli bacteria [2] = assay: Motion of suspended silanized exfoliated 10 nm few layer graphene with adhered E. coli, antibiotic susceptibility; assay type: cell-based
Procedure: In the embodiment of FIG. 2 a red helium-neon laser 114 is directed through optical components 115 on the 2D material layer 102 which is placed in a controlled humidity chamber 116. The intensity of the reflected light from the chip 109 is altered by the motion of the micro-organism 105 in the liquid droplet 111 that in turn moves the suspended 2D material 102. This intensity is then measured by a photodiode 117 connected to an oscilloscope 118. In another example a liquid droplet 111 containing micro-organism E. coli bacteria 105 and nutrition Lysogeny broth solution 112 has been dispensed on the sample receiver 101 comprising an array of silanized natural crystal exfoliated 10 nm few layer thick graphene as the suspended material 102. FIGS. 4a, 4b and 4c show the time traces of the suspended layer in a timeframe of twelve minutes.

## O=C(N[C@H](CO)[C@H](O)c1ccc([N+](=O)[O-])cc1)C(Cl)Cl [Chloramphenicol]
E. coli bacteria [1]; FIG. 3d
  change of variance of the time traces after adding antibiotic: drops about three times
E. coli bacteria [1]; timeframe of a few seconds, FIG. 3c
  fluctuations of the motion time trace (bacterial metabolic activity) after addition of antibiotic: No fluctuations are observed
E. coli bacteria [2]; FIGS. 5a-b (FIG. 4a vs FIG. 4c)
  change in average amplitude of the amplitude spectrum of the time traces after adding antibiotic: tenfold decrease
E. coli bacteria [2]; adhered bacteria, timeframe of twelve minutes, FIGS. 4b, 4c
  fluctuations of the motion time trace (bacterial metabolic activity) after addition of antibiotic: No fluctuations are observed
E. coli bacteria [2]; timeframe of twelve minutes, FIG. 4d
  change of variance of the time traces after adding antibiotic: drops about hundred times
